From patent US20050171215A1, “Germicidal compositions containing halogenated phthalaldehyes, and methods of using such compositions for disinfection or sterilization” (Ethicon, Inc., priority 2004, published 2005)
Read-outs that look alike come from different tables or passages of the source.

Experiments:
[1] = tested on: Mycobacterium terrae bacteria; assay: bacterial suspension test; type: cell-based; conditions: for Germicidal Efficacy: summary Table 14
Experimental: In Examples 1 to 3, which follow, several germicidal solutions containing either the 4-fluoro-, 4-chloro-, or 4-bromo-phthalaldehyde compound were tested to determine their effectiveness in killing at least 1×10^6/mL of Mycobacterium terrae bacteria using a bacterial suspension test. The bacterial suspension test that was employed is described in Section VII.
The solutions were prepared by adding the appropriate amounts of the germicidal compounds to an aqueous solution. Unless otherwise mentioned all concentrations reported herein are expressed in (w/v)%. The pH of the solution was not adjusted. The tests were conducted at a temperature of about 20° C. (room temperature). The results are presented in terms of log reductions/mL. It is understood that these examples, as well as the other examples herein, are to be construed as merely illustrative, and not limiting.
In this test method, 9 mL of the germicide to be tested is placed in a tube, put into a water bath and allowed to come to the desired temperature. One mL of the test organism, including at least 7 logs/mL of Mycobacterium terrae bacteria, is added to the 9 mL of the germicide to be tested. […] It will be appreciated by those skilled in the art that other concentrations may be utilized by proper dilution and accounting.
At appropriate time intervals, 1 mL aliquots of the germicide-cell suspension were removed and added directly into 9 mL of a 1% glycine solution (neutralizer) and mixed thoroughly to neutralize the germicide in the transferred suspension. The glycine solution was prepared from solid glycine, which is available from VWR Scientific Products, among others. The above-identified 10 mL neutralized solution was then poured through a membrane filter having an average pore size of 0.45 micrometers. The filter was then rinsed twice with at least 150 mL of the 1% glycine solution per rinse. The filter was then placed on an agar plate and incubated for twenty-one days at 37° C. In the above procedure, if dilution was needed, then the 1 mL germicidal-cell suspension was diluted in 99 mL of a phosphate buffer before addition to the 9 mL of the 1% glycine solution. The phosphate buffer was DiLu-LoK™ Butterfields Phosphate Buffer, available from Hardy Diagnostics, of Santa Maria, Calif.
The surviving colonies are then counted. The data is plotted as S/So vs. time. So is the initial count of the bacteria in the above 10 mL solution which is at least 10^6 bacteria/mL, and S is the surviving bacteria from the above filter on the agar plate. The results of the experiments were presented in terms of log reductions. Log reduction is the difference between log(So) and log(S). As one example, if log(So)=6.2, and if there were 100 survivors, then the log(S)=2, and the log reduction was reported as 4.2.

solubility in water = type: physicochemical

**Q.** For `O=CC(C=O)c1ccccc1` [phenyl-propanedial], which “Log Reductions/mL” value ([1]; 0.4%, 20° C., 60 min) is on record?
**A.** Total Kill

**Q.** What about the “Log Reductions/mL” value ([1]; 0.44%, 20° C., 60 min) of the same compound?
**A.** Total Kill

**Q.** And the “Log Reductions/mL” value ([1]; 0.66%, 20° C., 15 min)?
**A.** Total Kill

**Q.** What about the “Log Reductions/mL” value ([1]; 0.7%, 20° C., 15 min) of the same compound?
**A.** Total Kill

**Q.** What about the “Log Reductions/mL” value ([1]; (˜1%), 20° C., 5 min) of the same compound?
**A.** 4.5 log reductions/mL

**Q.** What about the log reduction at 0.66 % ([1]; Mycolicibacter terrae, 5 min, 0.66%, 20° C., 5 min, read-out: Log Reductions/mL) of the same compound?
**A.** < 2.5

**Q.** What about the log reduction at 1 % ([1]; Mycolicibacter terrae, 5 min, ˜1%, 20° C., 5 min (Table 15), read-out: Log Reductions/mL) of the same compound?
**A.** 4.5

**Q.** And the log reduction at 0.66 % ([1]; Mycolicibacter terrae, 10 min, 0.66%, 20° C., 10 min, read-out: Log Reductions/mL)?
**A.** 2.5

**Q.** What about the log reduction at 0.7 % ([1]; Mycolicibacter terrae, 10 min, 0.7%, 20° C., 10 min, read-out: Log Reductions/mL) of the same compound?
**A.** 2.5

**Q.** And the log reduction at 0.3 % ([1]; Mycolicibacter terrae, 0.5 h, 0.3%, 20° C., 30 min, read-out: Log Reductions/mL)?
**A.** 2.1

**Q.** And the log reduction at 0.33 % ([1]; Mycolicibacter terrae, 0.5 h, 0.33%, 20° C., 30 min, read-out: Log Reductions/mL)?
**A.** 2.1

**Q.** What about the log reduction at 0.4 % ([1]; Mycolicibacter terrae, 0.5 h, 0.4%, 20° C., 30 min, read-out: Log Reductions/mL) of the same compound?
**A.** 2.5

**Q.** And the log reduction at 0.44 % ([1]; Mycolicibacter terrae, 0.5 h, 0.44%, 20° C., 30 min, read-out: Log Reductions/mL)?
**A.** 2.5

**Q.** And the log reduction at 0.2 % ([1]; Mycolicibacter terrae, 1 h, 0.2%, 20° C., 60 min, read-out: Log Reductions/mL)?
**A.** 2.1

**Q.** What about the log reduction at 0.22 % ([1]; Mycolicibacter terrae, 1 h, 0.22%, 20° C., 60 min, read-out: Log Reductions/mL) of the same compound?
**A.** 2.1

**Q.** What about the “concentration effective to achieve a total kill” value ([1]; within 15 minutes, 20° C.) of the same compound?
**A.** 0.4 to 0.7%

**Q.** What about the “concentration effective to achieve a total kill of the bacteria” value ([1]; within 60 minutes, 20° C.) of the same compound?
**A.** 0.3 to 0.4%

**Q.** What about the solubility in water (solubility in water) of the same compound?
**A.** about 1%

**Q.** What does the source list for `O=Cc1ccc(F)cc1C=O` [4-fluoro-phthalaldehyde]?
**A.** Log Reductions/mL ([1]; 0.25%, 20° C., 60 minutes exposure): Total Kill; time to achieve a total kill of the bacteria ([1]; about 0.25%, 20° C.): 30 to 60 min

**Q.** Which results are given for `O=Cc1ccc(Br)cc1C=O` [4-bromo-phthalaldehyde]?
**A.** Log Reductions/mL ([1]; 0.1%, 20° C., 30 minutes exposure): Total Kill; time to achieve a total kill of the bacteria ([1]; about 0.1%, 20° C.): 10 to 30 min

**Q.** Which “Log Reductions/mL” value ([1]; Saturated (˜2.3% w/v), 5 min, 20° C.) does the source give for 4-pyridinyl-propanedial here?
**A.** 4.0 log reductions/mL

**Q.** With `O=CC(C=O)c1cccc(C(=O)O)c1[N+](=O)[O-]` [3-(1-formyl-2-oxoethyl)-2-nitro-benzoic acid] as the compound, how does the log reduction at 2.1 % ([1]; Mycolicibacter terrae, 5 min, Saturated (˜2.1% w/v), 5 min, 20° C., read-out: Log Reductions/mL) read?
**A.** 4

**Q.** For `O=Cc1ccccc1C=O` [OPA, phthalaldehyde, reference compound], which log reduction at 0.14 % ([1]; Mycolicibacter terrae, 5 min, 0.14%, 20° C., 5 min, read-out: Log Reductions/mL) is on record?
**A.** 4.8

**Q.** And the log reduction at 0.28 % ([1]; Mycolicibacter terrae, 5 min, 0.28%, 20° C., 5 min, read-out: Log Reductions/mL)?
**A.** 5.5

**Q.** What about the “Germicidal Efficacy” value [1] of the same compound?
**A.** Good

**Q.** What about the solubility in water (solubility in water) of the same compound?
**A.** about 5 % by weight

**Q.** Which results are given for `O=Cc1cccc(C=O)c1` [IPA, isophthalaldehyde, reference compound]?
**A.** Log Reductions/mL ([1]; 0.3%, dissolved in 20% isopropanol, 20° C., 5 min (Table 11)): Confluent; Log Reductions/mL ([1]; 0.3%, dissolved in 20% isopropanol, 20° C., 5 min (Table 15)): Confluent; Germicidal Efficacy [1]: Poor

**Q.** Which “Log Reductions/mL” value ([1]; 0.6%, 20° C., 60 min) does the source give for `O=CC(c1ccccc1)C(O)S(=O)(=O)[O-].[Na+]` (stereo not shown) [1-hydroxy-3-oxo-2-phenyl-propane-1-sulfonic acid, sodium salt] here?
**A.** Total Kill

**Q.** What about the log reduction at 0.6 % ([1]; Mycolicibacter terrae, 5 min, 0.6%, 20° C., 5 min, read-out: Log Reductions/mL) of the same compound?
**A.** 2.1

**Q.** And the log reduction at 0.6 % ([1]; Mycolicibacter terrae, 20 min, 0.6%, 20° C., 20 min, read-out: Log Reductions/mL)?
**A.** 2.5

**Q.** And the log reduction at 0.6 % ([1]; Mycolicibacter terrae, 25 min, 0.6%, 20° C., 25 min, read-out: Log Reductions/mL)?
**A.** 2.9

**Q.** With `O=Cc1ccc(Cl)cc1C=O` [4-chloro-phthalaldehyde] as the compound, how does the “Log Reductions/mL” value ([1]; 2.7 w/v % (in 20% isopropanol), 20° C., 5 min) read?
**A.** Total Kill

**Q.** What about the “concentration effective to achieve a total kill of all bacteria” value ([1]; in five minutes, 20° C.) of the same compound?
**A.** 0.2 to 2.7%

**Q.** With `O=Cc1ccc(C=O)cc1` [TPA, terephthalaldehyde, reference compound] as the compound, how does the “Log Reductions/mL” value ([1]; 0.2%, dissolved in 20% isopropanol, 20° C., 5 min) read?
**A.** Confluent

**Q.** What about the “Germicidal Efficacy” value [1] of the same compound?
**A.** Poor

**Q.** For `O=Cc1ccccc1C(O)S(=O)(=O)[O-].[Na+]` (stereo not shown) [(2-formyl-phenyl)-hydroxy-methane sulfonic acid, sodium salt], which “Log Reductions/mL” value ([1]; 9.1%, 20° C., 5 min) is on record?
**A.** Confluent
